According to US20170035914A1, “FUNCTIONALIZED PEPTIDE TRANSPORTERS FOR CELLULAR UPTAKE” (General Electric Company, priority 2015, published 2017):
Primed or numbered codes have the meaning given here. 5‑FAM = 5-FAM fluorescein label; Npys′ = not defined here

What was measured:
[1] = system: live cells; assay: Live-cell fluorescence microscopy of cell uptake and nuclear labeling, cell type not given (FIG. 4, 6, 7, 9); format: cell-based
From the text: (§1) A CPP-cargo construct (comprising a cell-penetrating moiety and a nuclear targeting moiety) was synthesized and conjugated via reactive 3-nitro-2-pyridinesulfenyl cysteine residues, and then purified by HPLC. When exogenously supplemented into cell staining media, these peptide fusions are designed to penetrate living cells and cleave into two subunits within the reducing environment of cell cytoplasm, thereby releasing a FITC-NLS peptide that is actively trafficked into the cell nucleus.

[2] = system: MRC5 cells; assay: Live-cell fluorescence microscopy of cell uptake and nuclear labeling by CPP-NLS-FAM fusion peptides; format: cell-based, human
From the text: as §1, with “nucleus. Thus, the fusion peptide is convenient for discriminating nuclei by live-cell microscopy.” for “nucleus.”
(§2) Live human MRC5 cells and mammalian CHO cells were incubated with fusion proteins as depicted in the flow chart in FIG. 3, steps 1 through 9. […] The FITC-NLS/pVEC fusion was constructed by independently synthesizing a FITC-NLS-Npys peptide and a modified pVEC sequence containing a terminal cysteine residue: […]

[3] = system: CHO cells; assay: as above; format: cell-based; details: mammalian CHO cells, compared with other tested cell-penetrating sequences, FIG. 4
From the text: as §1, with “nucleus. Thus, the fusion peptide is convenient for discriminating nuclei by live-cell microscopy.” for “nucleus.”
as §2

[4] = in the presence of excess monovalent pVEC (~132-156 μg/well), FIG. 7

Substance | effect of monovalent pVEC on cell uptake ([1]; higher amounts of monovalent pVEC (~132 μg/well), FIG. 9) | cell-uptake efficiency and nuclear labeling ([2]; live human MRC5 cells, compared with other tested cell-penetrating sequences, FIG. 4) | effect of monovalent pVEC on cellular uptake ([2]; monovalent pVEC ~44 μg/well, MRC5 cells, FIG. 8) | cell uptake and nuclear targeting [1, 4] | reduction in fusion peptide needed for equal or better cell uptake and nuclear labeling [1, 4] | delivery of the NLS-FAM cargo moiety into cells ([1]; various cell types, FIG. 4 legend) | cell-uptake efficiency and nuclear labeling [3]
5-FAM-GGPKKKRKVGGC(N-Pys)-OH ({5‑FAM}-GGPKKKRKVGGC(Npys′)-OH) [FITC-NLS-Npys] | enhanced cell uptake | – | – | – | – | – | –
5-FAM-GGPKKKRKVGGCCGGKSHAHAQKRIRRRLIILL (not fully specified; 5-FAM; disulfide-linked) [FAM-NLS-C-C-pVEC, disulfide-linked fusion of Fluorescein-NLS-Npys peptide and modified pVEC peptide] | – | highest | enhanced | enhanced | at least 8 fold | high efficiency | highest
